Results: patent US20230192701A1, “BICYCLIC KINASE INHIBITORS AND USES THEREOF” (iOmx Therapeutics AG, priority 2020, published 2023)
pIC50: −log10 of the molar value. ≈ marks a conversion by molar mass, not a printed value.

Key:
[1] = test system: human skin explants; conditions: topical treatment; Mujahid et al 2017; cited from earlier work
[2] = test system: MPAL-associated AML cell lines (including MOLM-13 and MV4-11); conditions: Tarumoto et al 2018; cited from earlier work
[3] = Human hepatocyte stability; format: in vitro ADME; conditions: human hepatocytes, 37°C
Procedure: (§1) Determination of human and mice hepatocyte stability was conducted as follows. 200 uL of the respective hepatocyte cell suspension (2×10e6/ml) was preincubated at 37° C. for 10 min. Then, 200 uL of a 2 uM working stock of the test compound was added to the hepatocyte cell suspension, and the mixture was further incubated at 37° C. and 500 rpm. The reaction was stopped at 30, 60 and 120 min by precipitating 50 uL of the incubation mixture with 200 uL of acetonitrile. Samples were vortexed for 5 min at 1200 rpm and centrifuged at 4000 rpm for 10 min. Intrinsic clearance and half-life were analysed using LC-MS/MS.
(§2) LC-MS/MS was performed for all assays using a C18 column (50*4.6 mm, 5 um) for the CaCo2 assay, or a C18 column (50*4.6 mm, 4 um) for the other assays. The mobile phases used were 10 mM Ammonium Acetate with 0.1% Formic acid (aqueous) and 100% Acetonitrile (organic).

[4] = Human liver microsomal stability; format: in vitro ADME; conditions: pH 7.4; human liver microsomes, NADPH, 37°C
Procedure: (§3) Briefly, human and liver microsomal stability was determined by pre-incubation of 2.5 uL compound and 75 uL of the respective liver microsomes in potassium phosphate buffer (pH 7.4) at 37° C. After adding of NADPH as cofactor and further incubation at 37° C. for 60 min, acetonitrile containing internal standard was added, and the sample was vortexed for 5 min at 1200 rpm and then centrifuged 10 min at 4000 rpm.
as §2

[5] = Mouse hepatocyte stability; format: in vitro ADME; conditions: mouse hepatocytes, 37°C
Procedure: as §1, §2

[6] = test system: HCT116 tumour cells; test: TNF-sensitised cell viability assay (CellTiter-Glo), HCT116; format: cell-based, human; conditions: Homo sapiens, HCT-116, read-out: HCT116 IC50 (at 10 ng/ml rHuTNF); 10 ng/ml rHuTNF, 72 h
Procedure: (§4) Cell viability of HCT116 tumour cells was measured using the CellTiter-Glo (CTG) luminescent cell viability assay (Promega, Madison, USA) according to the manufacturer's protocol. In short, 1×10^3 HCT116 cells were seeded in a 384-well plate for 24 h and subsequently treated with different concentrations of compounds and 10 ng/ml rHuTNF for 72 h at 37° C. and 5% CO2. After incubation, CTG reagent was added to the wells and cells were lysed for 10 min. Read-out was performed using the Tecan reader with 0.1 sec counting time. TNF-induced cell killing in human PANC1 and murine MC38 tumour cells was measured analogously to the assay in human HCT116 cells, except that for the PANC1 assay 100 ng/ml rHuTNF and for the MC38 assay 100 ng/ml rMuTNF were used.

[7] = test system: AML; conditions: administered intraperitoneally; Tarumoto et al 2020; cited from earlier work
[8] = Human plasma-protein binding (RED method); format: in vitro ADME
Procedure: (§5) Human and mice protein plasma binding was determined using the Plasma Protein Binding by RED Method. Briefly, 200 uL of the respective plasma containing the test compound (10 uM) was spiked into the donor well (RED Chamber) of the insert. 350 uL of PBS was spiked into receiver well (white chamber). The plate was incubated at 37° C. in a thermomixer at 400 rpm for 5 hours. The samples were matrix equilibrated with opposite matrix (25 uL blank buffet/Plasma). Matrix matched samples were precipitated with 200 uL of Acetonitrile containing Internal standard. Samples were vortexed at 1000 rpm for 5 min and centrifuged at 4000 rpm for 10 min. The supernatant was diluted 2 folds with water and % bound and unbound protein and % recovery at 5 h was determined by LC-MS/MS.
as §2

[9] = Mouse liver microsomal stability; format: in vitro ADME; conditions: pH 7.4; mouse liver microsomes, NADPH, 37°C
Procedure: as §3, §2

[10] = test system: MC38 tumour cells; test: TNF-sensitised cell viability assay (CellTiter-Glo), MC38; format: cell-based, murine; conditions: Mus musculus, MC-38, read-out: MC38 IC50 (at 100 ng/ml rMuTNF); 100 ng/ml rMuTNF, 72 h
Procedure: as §4

[11] = Murine plasma protein binding (RED method); format: in vitro ADME; conditions: mouse
Procedure: as §5, §2

[12] = CaCo2 permeability and efflux assay; format: in vitro ADME; conditions: human, Caco-2; CaCo2, mean efflux ratio
Procedure: (§6) To determine apparent permeability of the compounds an assay using a Caco-2 cells monolayer (cultured for 21d) in a 24-well format (poly carbonate high pore density plate with 0.4 μm pore size and a 0.7 cm2 active membrane area; Millipore) was performed as followed. 800 uL of DMEM was added to the basal compartment of the 24 well-plate and 60000 CaCo2 cells/well were seeded in the apical wells and incubated in a CO2 incubator at 37° C. for proliferation of cells. Apical to Basal permeability was determined by adding 400 uL of test compound to the apical well and 800 uL of HBSS buffer with 2% BSA to the basal well. 25 uL of basal sample was collected after 120 min and processed as stated below. Basal to Apical permeability was determined by adding 800 uL of test compound to basal well and 400 uL of HBSS buffer with 2% BSA to apical well. 25 uL of apical sample was collected after 120 min and processed as stated below. The samples were processed by diluting the donor samples 1:1 with HBSS containing 2% BSA and the receiver samples 1:1 with HBSS buffer. Samples were then precipitated with 200 uL of acetonitrile containing internal standard, vortexed for 5 min at 1000 rpm, and centrifuged at 4000 rpm for 20 min. 150 uL of supernatant was diluted with 150 uL of water and submitted for LC-MS/MS analysis, and Bi-directional (A-B and B-A) apparent permeability (Papp) was calculated.
as §2

[13] = test system: Caco-2 cells monolayer; test: CaCo2 permeability and efflux assay; format: in vitro ADME; conditions: CaCo2, apical to basal, 120 min
Procedure: as §6, §2

[14] = Kinetic solubility assay; format: physicochemical; conditions: aqueous buffer, kinetic from dmso stock; PBS buffer pH 7.4, 1.0% DMSO, 24 h at RT
Procedure: The Kinetic solubility assay was conducted as follows. 4 uL compound of the 50 mM DMSO stock was added to deep well plate containing 396 uL PBS buffer (pH 7.4). The DMSO content in the sample was 1.0%, and the compound concentration 500 μM. The sample plate was vortexed at 800 rpm for 24 h at RT on a thermomixer. At the end of the incubation period, the sample plate was centrifuged at 4000 rpm for 10 mins. 3 uL of supernatant was transferred to well containing 297 uL of ISTD in Acetonitrile water:50:50, v/v and analysed in LC-MS/MS against a calibration curve (CC).

[15] = test system: PANC1 tumour cells; test: TNF-sensitised cell viability assay (CellTiter-Glo), PANC1; format: cell-based, human; conditions: Homo sapiens, PANC-1, read-out: PANC IC50 (at 100 ng/ml rHuTNF); 100 ng/ml rHuTNF, 72 h
Procedure: as §4

[16] = pharmacokinetic study, plasma level after single po or iv administration; format: in vivo, male CD1 mice; conditions: mice
Procedure: Screening PK properties of compounds of Formula (I) are additionally determined, including plasma and free plasma concentration, as well as Cmax. For example, the free concentration of compound after a dose of eg 30 mg/kg po (per os) administered mice can be determined for certain time points after administrations.
To further investigate PK properties of kinase inhibitors of Formula (I), the compounds are tested for in vivo drug exposure and potency in a full pharmacokinetic study with oral administration (per os, po).
The experimental procedure and the determination of the pharmacokinetic parameters are investigated after single administration of each compound per gavage in male CD1 mice (Intonation Research Laboratories (Hyderabad, India)). The compounds are diluted in 5% DMSO+5% Solutol+90% water. Plasma level (eg sampling 0.25 h; 0.5 h; 1 h; 1.5 h; 2 h; 4 h; 6 h; 12 h; 24 h after drug administration) of the compounds are analysed by LC-MS/MS and pharmacokinetic parameters are determined using non-compartmental analysis and nominal dose levels of eg 30 mg/kg po and 1 mg/kg iv. Three animals are analysed per time point and each mouse is used for three plasma samplings in total.

Row | Structure (SMILES) | eumelanisation in human skin [1] | viability of MPAL-associated AML cell lines [2] | half-life at 1 uM [3] | half-life [4] | half-life at 1 uM [5] | pIC50 [6] | AML progression in-vivo [7] | recovery at 5 h, 10 uM [8] | half-life [9] | pIC50 [10] | recovery at 5 h, 10 uM [11] | efflux ratio at 120 min [12] | A > B(10 EE-06 cm/s) [13] | solubility kinetic at 24 h [14] | pIC50 [15] | compound detectable in plasma after 24 h ([16]; 1 mg/kg iv) | compound detectable in plasma after 24 h ([16]; 30 mg/kg po)
1 | COc1ccc(N(C(=O)Nc2c(C)cccc2C)c2cc(Nc3ccc(N4CCN(C)CC4)cc3)ncn2)c(OC)c1 [HG-9-91-01] | able to induce eumelanisation | strongly decreases viability |  |  |  |  |  |  |  |  |  |  |  |  |  |  | 
2 | COc1ccc(N2C(=O)N(c3c(C)cccc3Cl)Cc3cnc(Nc4ccc(C5CCN(C)CC5)cc4OC)nc32)nc1 [PY1, 3-(2-chloro-6-methylphenyl)-7-((2-methoxy-4-(1-methylpiperidin-4-yl)phenyl)amino)-1-(5-methoxypyridin-2-yl)-3,4-dihydropyrimido[4,5-d]pyrimidin-2(1H)-one, reference compound] |  |  | 10.7 h | 2.57 h | 1.25 h | 6.00 to 6.30 | suppressed AML progression in-vivo | 53% | 1.45 h | 6.00 to 6.30 | 42% | 3.2 | 9.5 10 EE-06 cm/s | 3.6 µM (≈ 2.16 µg/mL) | 6.00 to 6.30 | No PY1 (the prior art compound YKL-05-099) was detectable after 24 h | No PY1 (the prior art compound YKL-05-099) was detectable after 24 h
